Measurements reported in publication PMC5623949, “Exploiting the 2-Amino-1,3,4-thiadiazole Scaffold To Inhibit Trypanosoma brucei Pteridine Reductase in Support of Early-Stage Drug Discovery” (ACS Omega, 2017).
Where two headings read alike, the source gives them in different places.

How the values were obtained:
in vitro [1] = assay: in vitro; parameters: cytotoxicity, per cent cell growth of A549 cells; details: human, a549 cells; read-out: % cell growth A549 at 10uM
786-O [2] = assay: cells; parameters: mitochondrial toxicity in 786-O cells; details: Homo sapiens, 786-0
Experimental: (§1) Independent of the effect of any antiparasitic potential of compounds, they were evaluated using a panel of early-toxicity assays comprising cytotoxicity (A549, human lung adenocarcinoma epithelial cell line and WI-38, human lung fibroblasts), mitochondrial toxicity (786-O, human renal carcinoma cell line), hERG inhibition,[31] cytochrome P450 inhibition (CYP1A2, CYP2C9, CYP2C19, CYP2D6, and CYP3A4),[31] and Aurora B kinase inhibition. […] For the two compounds active against TbPTR1 (4m and 4o), IC50 against hERG, cytochrome P450, and mitochondrial toxicity were determined (reported in Supporting Information). We observed that the dose of compounds 4m, 4o, 4c, and 3k was 4 μM in the potentiation assays. […] In the case of hERG, CYP2D6, CYP2A9, CYP2C19, and mitochondrial toxicity, there is a selectivity index of around 3–4 fold, thus showing an acceptable profile.

CYP2C9 = CYP2C9 (Homo sapiens, UniProt P11712); assay: in vitro; parameters: cytochrome P450 isoform inhibition
Sequence of CYP2C9 (P11712 whole entry, canonical isoform): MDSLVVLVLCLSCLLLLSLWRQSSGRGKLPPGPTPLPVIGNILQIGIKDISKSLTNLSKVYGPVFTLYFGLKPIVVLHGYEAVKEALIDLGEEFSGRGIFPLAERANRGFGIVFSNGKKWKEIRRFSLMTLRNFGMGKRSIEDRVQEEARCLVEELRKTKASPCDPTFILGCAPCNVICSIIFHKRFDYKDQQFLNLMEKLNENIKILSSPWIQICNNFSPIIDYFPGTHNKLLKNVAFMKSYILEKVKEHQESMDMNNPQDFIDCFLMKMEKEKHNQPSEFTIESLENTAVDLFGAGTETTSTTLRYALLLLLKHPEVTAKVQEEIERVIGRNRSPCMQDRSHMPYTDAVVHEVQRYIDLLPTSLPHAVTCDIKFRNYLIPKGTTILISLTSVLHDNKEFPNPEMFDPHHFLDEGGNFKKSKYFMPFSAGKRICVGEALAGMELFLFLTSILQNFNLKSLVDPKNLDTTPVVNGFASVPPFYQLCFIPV
Experimental: as §1

CYP2C19 = CYP2C19 (Homo sapiens, UniProt P33261); assay: in vitro; parameters: cytochrome P450 isoform inhibition
Sequence of CYP2C19 (P33261 whole entry, canonical isoform): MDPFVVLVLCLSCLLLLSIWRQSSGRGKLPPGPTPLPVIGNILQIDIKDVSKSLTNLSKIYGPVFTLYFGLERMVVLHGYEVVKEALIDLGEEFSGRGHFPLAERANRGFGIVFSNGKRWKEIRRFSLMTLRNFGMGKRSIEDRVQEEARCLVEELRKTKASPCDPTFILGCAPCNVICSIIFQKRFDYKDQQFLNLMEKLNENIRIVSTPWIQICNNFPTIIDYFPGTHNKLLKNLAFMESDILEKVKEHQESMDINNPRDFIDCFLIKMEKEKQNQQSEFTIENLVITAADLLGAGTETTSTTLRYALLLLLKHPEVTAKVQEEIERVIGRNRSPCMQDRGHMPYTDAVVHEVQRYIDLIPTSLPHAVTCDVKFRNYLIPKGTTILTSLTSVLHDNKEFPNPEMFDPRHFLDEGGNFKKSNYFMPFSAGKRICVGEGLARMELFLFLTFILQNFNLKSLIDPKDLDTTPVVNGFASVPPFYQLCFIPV
Experimental: as §1

CYP2D6 = CYP2D6 (Homo sapiens, UniProt P10635); assay: in vitro; parameters: cytochrome P450 isoform inhibition
Sequence of CYP2D6 (P10635 whole entry, canonical isoform): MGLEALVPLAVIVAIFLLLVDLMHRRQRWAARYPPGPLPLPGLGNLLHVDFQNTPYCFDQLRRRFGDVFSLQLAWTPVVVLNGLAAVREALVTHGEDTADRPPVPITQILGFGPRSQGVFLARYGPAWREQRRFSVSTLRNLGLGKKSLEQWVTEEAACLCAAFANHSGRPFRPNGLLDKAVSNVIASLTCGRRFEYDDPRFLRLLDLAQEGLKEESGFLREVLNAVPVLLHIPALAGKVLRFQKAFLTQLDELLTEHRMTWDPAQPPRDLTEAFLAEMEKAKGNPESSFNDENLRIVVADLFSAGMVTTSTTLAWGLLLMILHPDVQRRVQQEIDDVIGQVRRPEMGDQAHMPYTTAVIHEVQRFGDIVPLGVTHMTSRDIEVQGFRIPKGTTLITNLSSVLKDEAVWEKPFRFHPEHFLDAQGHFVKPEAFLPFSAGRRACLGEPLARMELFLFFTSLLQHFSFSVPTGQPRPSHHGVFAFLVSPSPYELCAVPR
Experimental: as §1

CYP3A4 = CYP3A4 (Homo sapiens, UniProt P08684); assay: in vitro; parameters: cytochrome P450 isoform inhibition
Sequence of CYP3A4 (P08684 whole entry, canonical isoform): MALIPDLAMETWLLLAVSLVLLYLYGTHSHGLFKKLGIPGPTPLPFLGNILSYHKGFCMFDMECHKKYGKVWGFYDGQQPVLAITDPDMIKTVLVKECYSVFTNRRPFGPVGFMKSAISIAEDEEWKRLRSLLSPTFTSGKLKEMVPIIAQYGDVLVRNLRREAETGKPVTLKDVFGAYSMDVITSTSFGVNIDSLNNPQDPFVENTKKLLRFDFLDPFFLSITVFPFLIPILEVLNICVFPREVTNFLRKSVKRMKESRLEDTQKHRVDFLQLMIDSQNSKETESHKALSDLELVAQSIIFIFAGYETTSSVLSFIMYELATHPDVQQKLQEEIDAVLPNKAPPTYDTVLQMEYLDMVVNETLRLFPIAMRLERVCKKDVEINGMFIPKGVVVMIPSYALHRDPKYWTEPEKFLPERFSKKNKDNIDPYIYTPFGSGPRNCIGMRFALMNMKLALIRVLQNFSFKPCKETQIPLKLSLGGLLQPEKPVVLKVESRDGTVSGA
Experimental: as §1

CYP1A2 = molecular target: T1, CYP1A2 (Homo sapiens, UniProt P05177); assay: in vitro; parameters: cytochrome P450 isoform inhibition
T1 sequence (P05177 1-516): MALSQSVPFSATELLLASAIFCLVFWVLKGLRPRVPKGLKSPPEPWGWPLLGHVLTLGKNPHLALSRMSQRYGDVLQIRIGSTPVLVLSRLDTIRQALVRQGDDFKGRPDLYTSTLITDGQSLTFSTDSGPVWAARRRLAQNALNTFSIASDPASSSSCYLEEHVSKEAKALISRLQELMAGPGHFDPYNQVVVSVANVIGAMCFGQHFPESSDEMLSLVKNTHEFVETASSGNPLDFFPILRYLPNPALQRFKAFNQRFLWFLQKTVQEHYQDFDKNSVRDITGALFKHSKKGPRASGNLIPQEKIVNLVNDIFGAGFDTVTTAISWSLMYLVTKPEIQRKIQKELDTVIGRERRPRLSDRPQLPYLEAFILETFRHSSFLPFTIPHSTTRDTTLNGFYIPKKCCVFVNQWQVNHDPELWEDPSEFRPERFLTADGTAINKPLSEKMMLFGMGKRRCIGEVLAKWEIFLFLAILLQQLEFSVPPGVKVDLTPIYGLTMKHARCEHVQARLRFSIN
Experimental: as §1

hERG = molecular target: T2, hERG (Homo sapiens, UniProt Q12809); parameters: hERG inhibition liability assay
T2 construct: gene KCNH2
T2 sequence (Q12809 whole entry): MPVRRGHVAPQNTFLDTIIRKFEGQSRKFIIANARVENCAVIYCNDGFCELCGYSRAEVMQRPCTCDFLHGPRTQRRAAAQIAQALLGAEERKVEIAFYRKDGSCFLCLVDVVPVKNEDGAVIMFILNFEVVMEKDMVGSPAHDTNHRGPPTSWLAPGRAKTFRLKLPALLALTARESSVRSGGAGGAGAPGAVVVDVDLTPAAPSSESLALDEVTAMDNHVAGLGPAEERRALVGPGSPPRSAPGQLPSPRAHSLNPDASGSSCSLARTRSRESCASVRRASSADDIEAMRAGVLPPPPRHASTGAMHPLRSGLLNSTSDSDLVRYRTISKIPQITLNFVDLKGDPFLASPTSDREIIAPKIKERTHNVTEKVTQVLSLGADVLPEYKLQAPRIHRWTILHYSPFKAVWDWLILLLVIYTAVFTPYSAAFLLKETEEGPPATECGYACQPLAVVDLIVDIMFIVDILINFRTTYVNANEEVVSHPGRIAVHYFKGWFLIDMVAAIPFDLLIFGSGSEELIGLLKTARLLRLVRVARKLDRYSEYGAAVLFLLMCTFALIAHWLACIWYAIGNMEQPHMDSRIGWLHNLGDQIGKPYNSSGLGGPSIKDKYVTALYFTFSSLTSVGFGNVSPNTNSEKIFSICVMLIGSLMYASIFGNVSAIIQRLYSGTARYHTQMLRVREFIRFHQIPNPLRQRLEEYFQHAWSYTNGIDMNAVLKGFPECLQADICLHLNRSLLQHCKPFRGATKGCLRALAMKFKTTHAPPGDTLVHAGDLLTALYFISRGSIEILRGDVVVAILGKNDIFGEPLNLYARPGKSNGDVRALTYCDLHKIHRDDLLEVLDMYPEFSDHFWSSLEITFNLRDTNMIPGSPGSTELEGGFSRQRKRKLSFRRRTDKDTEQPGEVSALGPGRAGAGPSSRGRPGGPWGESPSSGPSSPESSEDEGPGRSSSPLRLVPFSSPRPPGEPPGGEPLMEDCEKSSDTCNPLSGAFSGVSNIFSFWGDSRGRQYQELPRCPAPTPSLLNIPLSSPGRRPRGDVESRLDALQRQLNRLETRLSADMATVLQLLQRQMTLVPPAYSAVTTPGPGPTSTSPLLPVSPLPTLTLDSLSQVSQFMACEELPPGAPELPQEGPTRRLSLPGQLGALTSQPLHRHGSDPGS

in vitro [3] = assay: in vitro; parameters: cytotoxicity, per cent cell growth of WI-38 fibroblasts; details: human, wi-38 cells; read-out: % cell growth W1-38 at 10uM
786-O [4] = assay: cells; parameters: mitochondrial toxicity in 786-O renal carcinoma cells; details: Homo sapiens, 786-0; read-out: mitochondrial toxicity [IC50 uM]

SMILES | viability at 10 µM (in vitro [1]) | inhibition at 10 µM (786-O [2]) | inhibition at 10 µM (CYP2C9) | inhibition at 10 µM (CYP2C19) | inhibition at 10 µM (CYP2D6) | inhibition at 10 µM (CYP3A4) | inhibition at 10 µM (CYP1A2) | IC50 (hERG) | viability at 10 µM (in vitro [3]) | IC50 (786-O [4])
Nc1nnc(NCc2ccc(-c3ccccc3)cc2)s1 [4m] | 112 ± 9.5% | -2.5 ± 6.1% | 46.9 ± 4.4% | 22.5 ± 4.7% | 53.6 ± 0.6% | 25.6 ± 6.3% | 60.4 ± 4.5% | 3.6 µM | 95.9 ± 18.6% | > 100 µM
Nc1nnc(NCCc2cccs2)s1 [4o, N2G(2G(thiophenG2Gyl)ethyl)G1,3,4GthiadiazoleG2,5Gdiamine] | 105 ± 11.4% | 0.5 ± 4.8% | 3.1 ± 4.8% | -20.9 ± 6.1% | 81.2 ± 1.2% | 30.4 ± 4.5% | -2.9 ± 3.4% | 3.1 µM | 96.7 ± 13.5% | 17.8 µM
